Measured values as given in patent US11136321B2, “Tricyclic compounds” (ALIGOS THERAPEUTICS, INC., priority 2019, dated 2021).

System: HBV
Test: HBV-DNA antiviral assay using HepG2.117 cells
Assay type: cell-based, genotype D HBV
Details: Hepatitis B virus, 72 h, intracellular HBV DNA by qPCR, 3 days incubation
Method in brief: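 HepG2.117 cells (genotype D HBV, Tet-off) seeded without doxycycline and treated for 3 days at 9 concentrations (4-fold dilutions) in 2% DMSO. Intracellular HBV DNA measured by qPCR against a standard curve, with viability from ATPlite run in parallel. EC50, EC90 and CC50 fitted relative to DMSO controls.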

SMILES | EC50 [nM]
CCNC(=O)c1ccc(-n2c(=O)c3c(n4ncc(Cc5ccccc5)c24)CN(C(=O)c2ccc(Br)c(Cl)c2)CC3)cc1 [Compound 61, 4-[5-benzyl-12-(4-bromo-3-chloro-benzoyl)-8-oxo-2,3,7,12-tetrazatricyclo [7.4.0.0 2,6]trideca-1(9),3,5-trien-7-yl]-N-ethyl-benzamide] | 500 to 5000
CCNC(=O)c1ccc(-n2c(=O)c3c(n4ncc(Cc5ccccc5)c24)CN(C(=O)c2ccc(Br)c(C#N)c2)CC3)cc1 [Compound 62, 4-[5-benzyl-12-(4-bromo-3-cyano-benzoyl)-8-oxo-2,3,7,12-tetrazatricyclo [7.4.0.0 2,6]trideca-1(9),3,5-trien-7-yl]-N-ethyl-benzamide] | 500 to 5000
CNC(=O)c1ccc(-n2c(=O)c3c(n4ncc(Nc5ccc(F)cc5)c24)CN(C(=O)c2ccc(Br)c(C#N)c2)CC3)cc1 [Compound 63, 4-[12-(4-bromo-3-cyano-benzoyl)-5-(4-fluoroanilino)-8-oxo-2,3,7,12-tetrazatricyclo [7.4.0.0 2,6]trideca-1(9),3,5-trien-7-yl]-N-methyl-benzamide] | 100 to 500
CC(C)NC(=O)c1ccc(-n2c(=O)c3c(n4ncc(Cc5ccccc5)c24)CN(C(=O)c2ccc(Br)c(Cl)c2)CC3)cc1 [Compound 64, 4-[5-benzyl-12-(4-bromo-3-chloro-benzoyl)-8-oxo-2,3,7,12-tetrazatricyclo [7.4.0.0 2,6]trideca-1(9),3,5-trien-7-yl]-N-isopropyl-benzamide] | 500 to 5000
CC(C)NC(=O)c1ccc(-n2c(=O)c3c(n4ncc(Cc5ccccc5)c24)CN(C(=O)c2ccc(Br)c(C#N)c2)CC3)cc1 [Compound 65, 4-[5-benzyl-12-(4-bromo-3-cyano-benzoyl)-8-oxo-2,3,7,12-tetrazatricyclo [7.4.0.0 2,6]trideca-1(9),3,5-trien-7-yl]-N-isopropyl-benzamide] | 500 to 5000
CNC(=O)c1ccc(-n2c(=O)c3c(n4ncc(NCc5ccccc5F)c24)CN(C(=O)c2ccc(Br)c(Cl)c2)CC3)cc1 [Compound 66, 4-[12-(4-bromo-3-chloro-benzoyl)-5-[(2-fluorophenyl)methylamino]-8-oxo-2,3,7,12-tetrazatricyclo [7.4.0.0 2,6]trideca-1(9),3,5-trien-7-yl]-N-methyl-benzamide] | ≤ 100
CNC(=O)c1ccc(-n2c(=O)c3c(n4ncc(NCc5ccc(F)cc5)c24)CN(C(=O)c2ccc(Br)c(Cl)c2)CC3)cc1 [Compound 67, 4-[12-(4-bromo-3-chloro-benzoyl)-5-[(4-fluorophenyl)methylamino]-8-oxo-2,3,7,12-tetrazatricyclo [7.4.0.0 2,6]trideca-1(9),3,5-trien-7-yl]-N-methyl-benzamide] | ≤ 100
O=C(NC1CC1)c1ccc(-n2c(=O)c3c(n4ncc(Cc5ccccc5)c24)CN(C(=O)c2ccc(Br)c(Cl)c2)CC3)cc1 [Compound 68, 4-[5-benzyl-12-(4-bromo-3-chloro-benzoyl)-8-oxo-2,3,7,12-tetrazatricyclo [7.4.0.0 2,6]trideca-1(9),3,5-trien-7-yl]-N-cyclopropyl-benzamide] | > 5000
CNC(=O)c1ccc(-n2c(=O)c3c(n4ncc(NCc5ccccc5F)c24)CN(C(=O)c2ccc(Br)c(C#N)c2)CC3)cc1 [Compound 69, 4-[12-(4-bromo-3-cyano-benzoyl)-5-[(2-fluorophenyl)methylamino]-8-oxo-2,3,7,12-tetrazatricyclo [7.4.0.0 2,6]trideca-1(9),3,5-trien-7-yl]-N-methyl-benzamide] | 100 to 500
CNC(=O)c1ccc(-n2c(=O)c3c(n4ncc(NCc5ccc(F)cc5)c24)CN(C(=O)c2ccc(Br)c(C#N)c2)CC3)cc1 [Compound 70, 4-[12-(4-bromo-3-cyano-benzoyl)-5-[(4-fluorophenyl)methylamino]-8-oxo-2,3,7,12-tetrazatricyclo [7.4.0.0 2,6]trideca-1(9),3,5-trien-7-yl]-N-methyl-benzamide] | 100 to 500
N#Cc1cc(C(=O)N2CCc3c(n4ncc(Cc5ccccc5)c4n(-c4ccc(-c5ncc[nH]5)cc4)c3=O)C2)ccc1Br [Compound 73, 5-[5-benzyl-7-[4-(1H-imidazol-2-yl)phenyl]-8-oxo-2,3,7,12-tetrazatricyclo [7.4.0.0 2,6]trideca-1(9),3,5-triene-12-carbonyl]-2-bromo-benzonitrile] | 500 to 5000
NC(=O)c1ccc(-n2c(=O)c3c(n4ncc(Cc5ccccc5)c24)CN(C(=O)c2ccc(Br)c(Cl)c2)CC3)cc1 [Compound 75, 4-[5-benzyl-12-(4-bromo-3-chloro-benzoyl)-8-oxo-2,3,7,12-tetrazatricyclo [7.4.0.0 2,6]trideca-1(9),3,5-trien-7-yl] benzamide] | 500 to 5000
N#Cc1cc(C(=O)N2CCc3c(n4ncc(Cc5ccccc5)c4n(-c4ccc(C(=O)NC5CC5)cc4)c3=O)C2)ccc1Br [Compound 76, 4-[5-benzyl-12-(4-bromo-3-cyano-benzoyl)-8-oxo-2,3,7,12-tetrazatricyclo [7.4.0.0 2,6]trideca-1(9),3,5-trien-7-yl]-N-cyclopropyl-benzamide] | > 5000
O=C(c1ccc(Br)c(Cl)c1)N1CCc2c(n3ncc(Cc4ccccc4)c3n(-c3ccc(-n4cccn4)cc3)c2=O)C1 [Compound 77, 5-benzyl-12-(4-bromo-3-chloro-benzoyl)-7-(4-pyrazol-1-ylphenyl)-2,3,7,12-tetrazatricyclo [7.4.0.0 2,6] trideca-1(9),3,5-trien-8-one] | > 5000
N#Cc1cc(C(=O)N2CCc3c(n4ncc(Cc5ccccc5)c4n(-c4ccc(-n5cccn5)cc4)c3=O)C2)ccc1Br [Compound 78, 5-[5-benzyl-8-oxo-7-(4-pyrazol-1-ylphenyl)-2,3,7,12-tetrazatricyclo [7.4.0.0 2,6]trideca-1(9),3,5-triene-12-carbonyl]-2-bromo-benzonitrile] | > 5000
N#Cc1cc(C(=O)N2CCc3c(n4ncc(Cc5ccccc5)c4n(-c4ccc(C(N)=O)cc4)c3=O)C2)ccc1Br [Compound 82, 4-[5-benzyl-12-(4-bromo-3-cyano-benzoyl)-8-oxo-2,3,7,12-tetrazatricyclo [7.4.0.0 2,6]trideca-1(9),3,5-trien-7-yl] benzamide] | > 5000
CNC(=O)c1ccc(-n2c(=O)c3c(n4ncc(NC(C)c5ccccc5)c24)CN(C(=O)c2ccc(Br)c(C#N)c2)CC3)cc1 (stereo not drawn) [Compound 83, 4-[12-(4-bromo-3-cyano-benzoyl)-8-oxo-5-(1-phenylethylamino)-2,3,7,12-tetrazatricyclo [7.4.0.0 2,6]trideca-1(9),3,5-trien-7-yl]-N-methyl-benzamide] | 100 to 500
CNC(=O)c1ccc(-n2c(=O)c3c(n4ncc(Cc5ccc(C#N)cc5F)c24)CN(C(=O)c2ccc(Br)c(C#N)c2)CC3)cc1 [Compound 84, 4-[12-(4-bromo-3-cyano-benzoyl)-5-[(4-cyano-2-fluoro-phenyl)methyl]-8-oxo-2,3,7,12-tetrazatricyclo [7.4.0.0 2,6]trideca-1(9),3,5-trien-7-yl]-N-methyl-benzamide] | 500 to 5000
CNC(=O)c1ccc(-n2c(=O)c3c(n4ncc(Cc5ccc(C#N)cc5F)c24)CN(C(=O)c2ccc(Br)c(Cl)c2)CC3)cc1 [Compound 85, 4-[12-(4-bromo-3-chloro-benzoyl)-5-[(4-cyano-2-fluoro-phenyl)methyl]-8-oxo-2,3,7,12-tetrazatricyclo [7.4.0.0 2,6]trideca-1(9),3,5-trien-7-yl]-N-methyl-benzamide] | ≤ 100
CNC(=O)c1ccc(-n2c(=O)c3c(n4ncc(Cc5ccc(OC)cc5F)c24)CN(C(=O)c2ccc(Br)c(C#N)c2)CC3)cc1 [Compound 86, 4-[12-(4-bromo-3-cyano-benzoyl)-5-[(2-fluoro-4-methoxy-phenyl)methyl]-8-oxo-2,3,7,12-tetrazatricyclo [7.4.0.0 2,6]trideca-1(9),3,5-trien-7-yl]-N-methyl-benzamide] | 100 to 500
CNC(=O)c1ccc(-n2c(=O)c3c(n4ncc(Cc5ccc(OC)cc5F)c24)CN(C(=O)c2ccc(Br)c(Cl)c2)CC3)cc1 [Compound 87, 4-[12-(4-bromo-3-chloro-benzoyl)-5-[(2-fluoro-4-methoxy-phenyl)methyl]-8-oxo-2,3,7,12-tetrazatricyclo [7.4.0.0 2,6]trideca-1(9),3,5-trien-7-yl]-N-methyl-benzamide] | ≤ 100
CNC(=O)c1ccc(-n2c(=O)c3c(n4ncc(Cc5ccc(OC)cc5)c24)CN(C(=O)c2ccc(Br)c(Cl)c2)CC3)cc1 [Compound 88, 4-[12-(4-bromo-3-chloro-benzoyl)-5-[(4-methoxyphenyl)methyl]-8-oxo-2,3,7,12-tetrazatricyclo [7.4.0.0 2,6]trideca-1(9),3,5-trien-7-yl]-N-methyl-benzamide] | ≤ 100
CNC(=O)c1ccc(-n2c(=O)c3c(n4ncc(Cc5ccc(OC)cc5)c24)CN(C(=O)c2ccc(Br)c(C#N)c2)CC3)cc1 [Compound 89, 4-[12-(4-bromo-3-cyano-benzoyl)-5-[(4-methoxyphenyl)methyl]-8-oxo-2,3,7,12-tetrazatricyclo [7.4.0.0 2,6]trideca-1(9),3,5-trien-7-yl]-N-methyl-benzamide] | ≤ 100
O=C(c1ccc(Br)c(Cl)c1)N1CCc2c(n3ncc(Cc4ccccc4)c3n(-c3ccc(-c4ncc[nH]4)cc3)c2=O)C1 [Compound 90, 5-benzyl-12-(4-bromo-3-chloro-benzoyl)-7-[4-(1H-imidazol-2-yl)phenyl]-2,3,7,12-tetrazatricyclo [7.4.0.0 2,6] trideca-1(9),3,5-trien-8-one] | 500 to 5000
